How the values were obtained:
p38MAPKγ (MAPK12) = molecular target: T1, p38MAPKγ (MAPK12) (Homo sapiens, UniProt P53778); experiment: p38 MAPKγ enzyme inhibition (Z-LYTE FRET); format: biochemical; conditions: Table 2A; read-out: IC50 Values for Enzyme Inhibition p38 MAPKγ
T1 construct: purchased Life Technologies
T1 sequence (P53778 1-367): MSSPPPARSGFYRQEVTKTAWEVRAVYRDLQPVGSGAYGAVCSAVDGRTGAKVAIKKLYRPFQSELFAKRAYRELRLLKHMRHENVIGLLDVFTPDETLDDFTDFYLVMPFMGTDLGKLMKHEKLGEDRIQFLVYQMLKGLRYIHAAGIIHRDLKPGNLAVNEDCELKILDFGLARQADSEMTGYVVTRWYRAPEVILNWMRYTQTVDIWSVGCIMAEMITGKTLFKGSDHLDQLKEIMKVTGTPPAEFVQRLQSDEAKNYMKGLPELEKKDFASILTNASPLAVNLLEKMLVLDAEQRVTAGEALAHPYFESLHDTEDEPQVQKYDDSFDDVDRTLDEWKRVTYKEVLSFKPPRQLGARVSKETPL
Outline: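 Z-LYTE read-out: after 1 h protease development, only non-phosphorylated peptide is cleaved, and the donor/acceptor (coumarin/fluorescein) ratio reports phosphorylation. Beforehand, enzyme and compound (stock concentrations 0.0012–40 μg/mL) were preincubated 2 h at RT, then the kinase reaction ran 1 h at RT with peptide and ATP (8 μM and 400 μM stocks).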

Hck = molecular target: T2, Hck (Homo sapiens, UniProt P08631); experiment: Hck enzyme inhibition (Z-LYTE FRET); format: biochemical; conditions: Table 2A
T2 construct: purchased Life Technologies
T2 sequence (P08631 22-526): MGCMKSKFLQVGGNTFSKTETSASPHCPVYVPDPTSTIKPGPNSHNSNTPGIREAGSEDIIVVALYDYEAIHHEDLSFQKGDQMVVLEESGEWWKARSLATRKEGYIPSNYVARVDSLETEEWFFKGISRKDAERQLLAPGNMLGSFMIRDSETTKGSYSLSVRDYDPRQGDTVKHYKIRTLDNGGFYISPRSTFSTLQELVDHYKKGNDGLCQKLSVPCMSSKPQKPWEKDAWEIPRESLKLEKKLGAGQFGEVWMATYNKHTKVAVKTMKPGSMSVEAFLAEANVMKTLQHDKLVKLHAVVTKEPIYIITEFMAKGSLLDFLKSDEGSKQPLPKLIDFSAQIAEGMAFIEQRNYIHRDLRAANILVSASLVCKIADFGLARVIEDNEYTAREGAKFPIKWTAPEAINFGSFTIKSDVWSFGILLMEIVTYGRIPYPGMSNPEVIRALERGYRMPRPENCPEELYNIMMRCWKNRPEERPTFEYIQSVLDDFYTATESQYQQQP
Experimental: (§1) The enzyme inhibitory activities of compounds disclosed herein were determined by FRET using synthetic peptides labelled with both donor and acceptor fluorophores (Z-LYTE, Life Technologies, Paisley, UK).
(§2) The relevant enzyme (1000 ng/mL, 1400 ng/mL or 2000 ng/mL respectively, 2.5 μL) was incubated with the test compound (either 40 μg/mL, 12 μg/mL, 4 μg/mL, 1.2 μg/mL, 0.4 μg/mL, 0.12 μg/mL, 0.04 μg/mL, 0.012 μg/mL, 0.004 μg/mL or 0.0012 μg/mL, 2.5 μL each) for 2 h at RT. The FRET peptides (8 μM, 2.5 μL), and appropriate ATP solutions (2.5 μL, 800 μM for c-Src, and 60 μM ATP for HCK and Syk) were then added to the enzyme/compound mixtures and incubated for 1 h at RT. Development reagent (protease, 5 μL) was added for 1 h prior to detection in a fluorescence microplate reader (EnVision, Perkin Elmer).
(§3) In all cases, the site-specific protease cleaves non-phosphorylated peptide only and eliminates the FRET signal. Phosphorylation levels of each reaction were calculated using the ratio of coumarin emission (donor) over fluorescein emission (acceptor), for which low ratios indicate high phosphorylation and high ratios indicate low phosphorylation levels.

c-Src = molecular target: T3, c-Src (Homo sapiens, UniProt P12931); experiment: c-Src enzyme inhibition (Z-LYTE FRET); format: biochemical; conditions: Table 2A
T3 construct: purchased Life Technologies
T3 sequence (P12931 whole entry): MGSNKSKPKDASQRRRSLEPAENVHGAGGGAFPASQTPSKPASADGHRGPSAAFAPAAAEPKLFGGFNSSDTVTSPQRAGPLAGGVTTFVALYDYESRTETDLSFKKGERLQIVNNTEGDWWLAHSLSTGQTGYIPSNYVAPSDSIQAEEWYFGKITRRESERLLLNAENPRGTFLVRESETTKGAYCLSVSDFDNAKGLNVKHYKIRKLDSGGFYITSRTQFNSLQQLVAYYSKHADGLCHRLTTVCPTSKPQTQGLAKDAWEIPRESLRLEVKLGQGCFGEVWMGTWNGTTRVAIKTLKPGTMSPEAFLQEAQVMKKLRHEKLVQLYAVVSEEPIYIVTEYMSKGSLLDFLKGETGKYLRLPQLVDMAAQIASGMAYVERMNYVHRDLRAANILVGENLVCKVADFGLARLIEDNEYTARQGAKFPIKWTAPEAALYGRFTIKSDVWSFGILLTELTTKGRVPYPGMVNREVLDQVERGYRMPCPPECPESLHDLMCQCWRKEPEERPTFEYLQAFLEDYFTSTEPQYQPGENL
Experimental: as §1, §2, §3

Syk = molecular target: T4, Syk (Homo sapiens, UniProt P43405); experiment: Syk enzyme inhibition (Z-LYTE FRET); format: biochemical; conditions: Table 2A
T4 construct: purchased Life Technologies
Outline: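 Enzyme (1000, 1400 or 2000 ng/mL stocks for c-Src, Hck, Syk respectively) preincubated 2 h at RT with compound (0.0012–40 μg/mL series), then FRET peptide plus ATP (800 μM c-Src; 60 μM Hck, Syk stocks) for 1 h. Protease development 1 h; phosphorylation from coumarin/fluorescein emission ratio.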

GSK 3α enzyme isoform = molecular target: T5, GSK 3α enzyme isoform (Homo sapiens, UniProt P49840); experiment: GSK 3α enzyme inhibition (Z-LYTE FRET); format: biochemical; conditions: Table 2A; read-out: IC50 Values for Enzyme Inhibition GSK3α
T5 construct: purchased Life Technologies
T5 sequence (P49840 whole entry, canonical isoform): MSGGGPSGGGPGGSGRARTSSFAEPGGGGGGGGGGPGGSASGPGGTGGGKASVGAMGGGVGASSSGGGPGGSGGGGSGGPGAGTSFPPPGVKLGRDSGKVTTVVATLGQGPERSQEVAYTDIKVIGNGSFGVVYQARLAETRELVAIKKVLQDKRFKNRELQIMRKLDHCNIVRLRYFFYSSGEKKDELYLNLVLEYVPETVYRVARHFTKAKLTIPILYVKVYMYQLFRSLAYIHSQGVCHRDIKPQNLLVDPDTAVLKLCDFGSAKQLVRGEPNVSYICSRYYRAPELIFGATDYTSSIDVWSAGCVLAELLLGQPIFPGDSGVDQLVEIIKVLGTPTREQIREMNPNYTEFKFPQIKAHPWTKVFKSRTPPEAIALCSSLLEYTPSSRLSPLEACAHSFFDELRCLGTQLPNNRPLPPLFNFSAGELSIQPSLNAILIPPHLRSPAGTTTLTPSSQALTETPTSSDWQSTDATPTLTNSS
Outline: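 Z-LYTE FRET kinase assay: GSK3α protein (500 ng/mL stock) preincubated with compound (0.0012–40 μg/mL stocks) for 2 h at RT. FRET peptide (8 μM stock) and ATP (40 μM stock) added for 1 h at RT, then protease development for 1 h. Phosphorylation taken from the coumarin/fluorescein emission ratio.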

[1] = test system: IL-8 release in d-U937 cells; experiment: LPS-induced IL-8 release in d-U937 cells; format: cell-based; conditions: Homo sapiens, dU937, LPS 0.1 μg/mL 4 h
Experimental: (§4) U937 cells, a human monocytic cell line, were differentiated into macrophage-type cells by incubation with PMA (100-200 ng/mL) for 48 to 72 h. Cells were pre-incubated with final […] concentrations of test compound for 2 h and were then stimulated with LPS (0.1 μg/mL; from E. coli: O111:B4, Sigma) for 4 h. The supernatant was collected for determination of TNFα and IL-8 concentrations by sandwich ELISA (Duo-set, R&D systems). […] The relative 50% effective concentration (REC50) was determined from the resultant concentration-response curve. The inhibition of IL-8 production was calculated at each concentration of test compound by comparison with vehicle control.

[2] = test system: TNFα release in d-U937 cells; experiment: LPS-induced TNFα release in d-U937 cells; format: cell-based; conditions: Homo sapiens, dU937; read-out: LPS Induced Release TNFα REC50 (dU937); note: relative to 10 µg/mL BIRB-796
Experimental: as §4

d-U937 cells = experiment: Cell viability: MTT assay in differentiated U937 cells; format: cell-based, human; conditions: 10 μg/mL
Outline: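 Differentiated U937 cells exposed to compound at a final 10 μg/mL, either 4 h in 5% FCS RPMI1640 or 24 h in 10% FCS RPMI1640. MTT added for 1 h, formazan dissolved in DMSO, absorbance read at 550 nm; % viability loss relative to 0.5% DMSO vehicle, with increases shown as negative values.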

| IC50 (p38MAPKγ (MAPK12)) [µM] | IC50 (Hck) [µM] | IC50 (c-Src) [µM] | IC50 (Syk) [µM] | IC50 (GSK 3α enzyme isoform) [µM] | IC50 [1] [µM] | EC50 [2] [µM] | SMILES | MTT Assay Cell viability at time point indicated in d-U937 Cells, 4 h (d-U937 cells) | MTT Assay Cell viability at time point indicated in d-U937 Cells, 24 h (d-U937 cells) |
| --- | --- | --- | --- | --- | --- | --- | --- | --- | --- |
| > 7.15 | 0.355 | 2.52 | > 15.7 | > 15.7 | 0.0896 | 0.144 | Cc1ccc(-n2nc(C(C)(C)C)cc2NC(=O)Nc2ccc(OCc3ccnc(Nc4cnc(C5CC5)cn4)c3)c3ccccc23)cc1 [Example 16] | − (−ve and +ve indicate the value is below and above, respectively, the no significant effect threshold defined as 30% inhibition at 10 μg/mL at the time point indicated) | − (−ve and +ve indicate the value is below and above, respectively, the no significant effect threshold defined as 30% inhibition at 10 μg/mL at the time point indicated) |
| 0.074 | 0.017 | 0.034 | > 13.2 | 2.82 | 0.0165 | 0.0127 | Cc1ccc(-n2nc(C(C)(C)C)cc2NC(=O)Nc2ccc(OCc3ccnc(Nc4cnc(C(=O)NCCN5CCOCC5)cn4)c3)c3ccccc23)cc1 [Example 17] | − (−ve and +ve indicate the value is below and above, respectively, the no significant effect threshold defined as 30% inhibition at 10 μg/mL at the time point indicated) | − (−ve and +ve indicate the value is below and above, respectively, the no significant effect threshold defined as 30% inhibition at 10 μg/mL at the time point indicated) |
| 0.104 | 0.041 | 0.196 | > 15.9 | 9.17 | 0.0021 | 0.0026 | COc1cncc(Nc2cc(COc3ccc(NC(=O)Nc4cc(C(C)(C)C)nn4-c4ccc(C)cc4)c4ccccc34)ccn2)n1 [Example 18] | − (−ve and +ve indicate the value is below and above, respectively, the no significant effect threshold defined as 30% inhibition at 10 μg/mL at the time point indicated) | + (−ve and +ve indicate the value is below and above, respectively, the no significant effect threshold defined as 30% inhibition at 10 μg/mL at the time point indicated) |
| 0.229 | 0.053 | 0.151 | > 16.3 | > 16.3 | 0.0014 | 0.0132 | Cc1ccc(-n2nc(C(C)(C)C)cc2NC(=O)Nc2ccc(OCc3ccnc(Nc4cnc(C)cn4)c3)c3ccccc23)cc1 [Example 19] | − (−ve and +ve indicate the value is below and above, respectively, the no significant effect threshold defined as 30% inhibition at 10 μg/mL at the time point indicated) | − (−ve and +ve indicate the value is below and above, respectively, the no significant effect threshold defined as 30% inhibition at 10 μg/mL at the time point indicated) |
| 0.062 | 0.052 | 0.15 | > 16.3 | 9.04 | 0.0013 | 0.0013 | Cc1ccc(-n2nc(C(C)(C)C)cc2NC(=O)Nc2ccc(OCc3ccnc(Nc4cncc(C)n4)c3)c3ccccc23)cc1 [Example 20] | − (−ve and +ve indicate the value is below and above, respectively, the no significant effect threshold defined as 30% inhibition at 10 μg/mL at the time point indicated) | − (−ve and +ve indicate the value is below and above, respectively, the no significant effect threshold defined as 30% inhibition at 10 μg/mL at the time point indicated) |
| 0.031 | 0.012 | 0.033 | > 15.9 | 1.58 | 0.0079 | 0.0006 | Cc1ccc(-n2nc(C(C)(C)C)cc2NC(=O)Nc2ccc(OCc3ccnc(Nc4cncc(CO)n4)c3)c3ccccc23)cc1 [Example 21] | − (−ve and +ve indicate the value is below and above, respectively, the no significant effect threshold defined as 30% inhibition at 10 μg/mL at the time point indicated) | − (−ve and +ve indicate the value is below and above, respectively, the no significant effect threshold defined as 30% inhibition at 10 μg/mL at the time point indicated) |
| 0.377 | 0.014 | 0.027 | 6.7 | 1.71 | 0.0016 | 0.0021 | COc1ccc(-n2nc(C(C)(C)C)cc2NC(=O)Nc2ccc(OCc3ccnc(Nc4cncc(C5CC5)n4)c3)c3ccccc23)cc1 [Example 22] | − (−ve and +ve indicate the value is below and above, respectively, the no significant effect threshold defined as 30% inhibition at 10 μg/mL at the time point indicated) | − (−ve and +ve indicate the value is below and above, respectively, the no significant effect threshold defined as 30% inhibition at 10 μg/mL at the time point indicated) |
| 0.209 | 0.013 | 0.033 | 2.15 | 0.626 | 0.0062 | 0.0031 | COc1ccc(-n2nc(C(C)(C)C)cc2NC(=O)Nc2ccc(OCc3ccnc(Nc4cnc(CO)cn4)c3)c3ccccc23)cc1 [Example 23] | − (−ve and +ve indicate the value is below and above, respectively, the no significant effect threshold defined as 30% inhibition at 10 μg/mL at the time point indicated) | + (−ve and +ve indicate the value is below and above, respectively, the no significant effect threshold defined as 30% inhibition at 10 μg/mL at the time point indicated) |
| 0.334 | 0.018 | 0.042 | 8.83 | 1.13 | 0.0045 | 0.0031 | Cc1ccc(-n2nc(C(C)(C)C)cc2NC(=O)Nc2ccc(OCc3ccnc(Nc4cncc(C5CC5)n4)c3)c3ccccc23)s1 [Example 24] | − (−ve and +ve indicate the value is below and above, respectively, the no significant effect threshold defined as 30% inhibition at 10 μg/mL at the time point indicated) | − (−ve and +ve indicate the value is below and above, respectively, the no significant effect threshold defined as 30% inhibition at 10 μg/mL at the time point indicated) |

— patent publication US11142515B2, “Pyrazolyl-ureas as kinase inhibitors” (RESPIVERT LIMITED, priority 2014, dated 2021)
